Results published in patent US20200079801A1, “TRISUBSTITUTEDSILYLBENZYLBENZIMIDAZOLES AND ANALOGUES” (Bayer Aktiengesellschaft, priority 2017, published 2020).

Columns and labels:
[1] = for logP: HPLC, C 18 reversed phase, 40° C., 0.1% aqueous formic acid and acetonitrile, gradient 10% to 95% acetonitrile
Method: temperature: 40° C.; mobile phases: 0.1% aqueous formic acid and acetonitrile; linear gradient from 10% acetonitrile to 95% acetonitrile;
Calibration was carried out using unbranched alkan-2-ones (comprising 3 to 16 carbon atoms) with known logP values (determination of the logP values by the retention times using linear interpolation between two successive alkanones). lambda-max-values were determined using UV-spectra from 200 nm to 400 nm and the peak values of the chromatographic signals.

[2] = test system: Pyricularia oryzae; assay: microbe, parasite or virus in culture; assay type: cell-based; settings: 120 h, read-out: efficacy (inhibition of fungal growth)
[3] = test system: Colletotrichum lindemuthianum; assay: In vitro cell test on Colletotrichum lindemuthianum; assay type: cell-based; settings: 144 h, 20 ppm of active ingredient, 6 days incubation, spectrometric measurement of mycelium growth, read-out: efficacy (inhibition of fungal growth)
Method: (§1) Example C: In Vitro Cell Test on Colletotrichum lindemuthianum Solvent: dimethyl sulfoxide Culture medium: 14.6 g anhydrous D-glucose (VWR), 7.1 g mycological peptone (Oxoid), 1.4 g granulated yeast extract (Merck), QSP 1 liter Inoculum: spore suspension The tested compounds were solubilized in dimethyl sulfoxide and the solution used to prepare the required range of concentrations. […] A spore suspension of Colletotrichum lindemuthianum was prepared and diluted to the desired spore density. Compounds were evaluated for their ability to inhibit spores germination and mycelium growth in liquid culture assay. The compounds were added in the desired concentration to the culture medium with spores. After 6 days incubation, fungi-toxicity of compounds was determined by spectrometric measurement of mycelium growth. Inhibition of fungal growth was determined by comparing the absorbance values in wells containing the compounds with the absorbance in control wells without fungicides.

[4] = test system: Alternaria alternate; assay: In vitro cell test on Alternaria alternate; assay type: cell-based; settings: 120 h, 20 ppm of active ingredient, 5 days incubation, spectrometric measurement of mycelium growth, read-out: efficacy (inhibition of fungal growth)
Method: as §1, with “Example B:” for “Example C:”, “on Alternaria alternate” for “on Colletotrichum lindemuthianum”, “(Merck), […]” for “(Merck), QSP 1 liter”, “of Alternaria alternate” for “of Colletotrichum lindemuthianum”, “inhibit spore” for “inhibit spores”, “After 5” for “After 6”

C[Si](C)(c1ccccc1)c1ccccc1Cn1cnc2ccccc21 [I.01, 1-{2-[dimethyl(phenyl)silyl]benzyl}-1H-benzimidazole]
chromatographic logP [1]: 2.57
inhibition at 20 ppm [2]: 90 to 100%
inhibition at 20 ppm [3]: 90 to 100%
inhibition at 20 ppm [4]: 80 to 89%

C[Si](C)(c1ccc(-c2ccccc2)cc1)c1ccccc1Cn1cnc2ccccc21 [I.40]
logP [1]: 3.39

Cc1nc2ccccc2n1Cc1ccccc1[Si](C)(C)c1ccc(-c2ccccc2)cc1 [I.46]
logP [1]: 3.18

Cc1cc2ncn(Cc3ccccc3[Si](C)(C)c3ccc(-c4ccccc4)cc3)c2cc1C [I.48]
logP [1]: 3.33

Cc1cc2nc(C)n(Cc3ccccc3[Si](C)(C)c3ccc(-c4ccccc4)cc3)c2cc1C [I.53]
logP [1]: 3.29
